Test results from publication PMC8097893, “Investigating the effects of two novel 4-MMPB analogs as potent lipoxygenase inhibitors for prostate cancer treatment” (Journal of Biological Research, 2021).
Read-outs that look alike come from different tables or passages of the source.

Columns and labels:
[1] = In vivo side effects evaluation (body weight, serum biochemistry, H&E histology); set-up: species or system C57BL/6 mice; conditions: for serum AST and ALT levels: 50 mg kg^-1, compared with immunosuppressed control group; for histological analysis of major organs (liver, kidney, spleen): H&E, day 15 after treatments
soybean LOX-1 [2] = target: T1, soybean LOX-1 (Glycine max, UniProt P08170); assay: Soybean LOX-1 enzyme inhibitory assessment (DMAB-MBTH colour assay, linoleic acid substrate); format: biochemical; conditions: from sigmoidal dose-response curves, n = 3; read-out: IC50, soybean LOX-1 inhibition
T1 construct: purchased Sigma-Aldrich
T1 sequence (P08170 1-839): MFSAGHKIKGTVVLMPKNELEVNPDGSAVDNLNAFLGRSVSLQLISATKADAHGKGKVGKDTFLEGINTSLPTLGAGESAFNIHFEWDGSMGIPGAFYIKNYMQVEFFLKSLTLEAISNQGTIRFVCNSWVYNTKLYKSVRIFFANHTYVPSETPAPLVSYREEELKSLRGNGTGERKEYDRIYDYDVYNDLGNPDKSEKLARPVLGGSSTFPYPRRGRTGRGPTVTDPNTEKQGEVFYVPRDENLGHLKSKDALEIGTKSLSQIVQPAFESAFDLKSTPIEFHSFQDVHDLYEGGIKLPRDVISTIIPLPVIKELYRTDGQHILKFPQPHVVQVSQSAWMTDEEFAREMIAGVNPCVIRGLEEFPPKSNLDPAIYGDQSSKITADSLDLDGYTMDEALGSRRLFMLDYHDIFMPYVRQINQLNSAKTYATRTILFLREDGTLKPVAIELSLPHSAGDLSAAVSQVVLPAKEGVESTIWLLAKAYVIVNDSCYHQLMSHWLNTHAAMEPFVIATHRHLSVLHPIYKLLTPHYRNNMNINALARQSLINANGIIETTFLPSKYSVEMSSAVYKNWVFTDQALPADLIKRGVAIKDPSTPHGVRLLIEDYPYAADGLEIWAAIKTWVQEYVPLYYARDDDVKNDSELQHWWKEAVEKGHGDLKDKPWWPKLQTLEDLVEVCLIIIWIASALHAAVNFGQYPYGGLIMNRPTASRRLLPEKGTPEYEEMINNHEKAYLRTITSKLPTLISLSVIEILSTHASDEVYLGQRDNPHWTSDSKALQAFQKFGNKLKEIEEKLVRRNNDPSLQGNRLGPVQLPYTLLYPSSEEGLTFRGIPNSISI
Protocol: Linoleic acid and two assay solutions (A and B) were prepared in advance. Solution A was 50 mM 3-(dimethylamino)benzoic acid (DMAB) in l00 mM phosphate buffer (pH 7.0). Solution B was a mixture of l0 mM 3-methyl-2-benzothiazolinonehydrazone hydrochloride (MBTH; 3 ml), and hemoglobin (5 mg ml^−1, 3 ml) in 50 mM phosphate buffer at pH 5.0 (25 ml). A linoleic acid solution was prepared by mixing 5.6 mg linoleic acid with 0.5 ml methanol and then diluted with 100 mM KOH to a final volume of 5 ml (4 mM). In the assay, a solution of inhibitors in dimethyl sulfoxide (DMSO) (12.5 μl), soybean LOX-1 (4000 units ml^−1 in 50 mM phosphate buffer pH 7.0; 25 μl), and phosphate buffer, pH 7.0 (50 mM; 435 μl) were mixed in 48-well plates, and pre incubation was carried out for 10 min at 30 °C. A control test was performed with the same volume of DMSO. After the pre incubation, linoleic acid solution (25 μl) was added to start the peroxidation reaction at 30 °C, and 10 min later, solution A (135 μl) and then solution B (65 μl) were added to start the color formation. After 3 min, 100 μl of a 2% sodium dodecyl sulphate (SDS) solution was added to terminate the reaction. The absorbance at 598 nm was compared with the control. These experiments were performed in triplicate and the data were analyzed using GraphPad Prism 6.0 (San Diego, USA).
Lipoxygenase inhibitory activity of 4-MMPB and its analogs was assessed on soybean LOX-1 and the inhibitory potencies (IC50 values) of the mentioned compounds were calculated from their sigmoidal dose–response curves (Fig. 2).

PC-3 tumors = assay: Anti-tumor effect in PC-3 xenograft tumor model in immunocompromised C57BL/6 mice
PC-3 cells [3] = assay: Flow cytometric analysis of cell death (Annexin V-FITC/PI) in PC-3 cells; format: cell-based, human; conditions: for change of Q2 (Annexin V positive/PI positive) population after co-treatment with deferoxamine: PC-3, compared with compound only; for percentage of early and late apoptotic/ferroptotic cells (Q3+Q2): PC-3, treated with IC50 value of the compound, 24 h, control 0.133%
Protocol: To determine the mechanism of cell death induced by 4-MMPB analogs, flow cytometry was employed using the Annexin V-FITC kit with PI (BioLegend, San Diego, USA) according to the manufacturer’s instructions. We performed co-treatment experiments with the compounds and a ferroptosis inhibitor (IC50 values of 4-PMPB + , 4-EMPB + , and 4-MMPB + deferoxamine (80 µM)) on PC-3 cells, to distinguish between ferroptosis and apoptosis mechanisms. […] Then the cells were collected by trypsinization (0.25% trypsin-1 mM EDTA), washed twice with PBS, followed by centrifugation, and resuspended in a binding buffer. Samples were stained with Annexin V-FITC/ PI followed by 15 min incubation at room temperature. Finally, cells were subjected to flow cytometry (BD Accuri C6, San Jose, USA) and the data were analyzed by FlowJo 7.6.1 software (Ashland, USA). Moreover, PC-3 cells treated with 0.3 N HCl were used as a control to eliminate the effects of solvent.

HDF cells = assay: MTT cytotoxicity assay on HDF normal cells; format: cell-based, human
Protocol: (§1) Two mg of each compound was dissolved in 100 μl hydrochloric acid (HCl 0.3 N) to make a primary stock solution. Different concentrations (1.56–50 μg ml^−1) were then prepared by serial dilution from the primary stock solution and further diluted in the culture medium.
(§2) PC-3 cells were obtained from Pasteur Institute (Tehran, Iran) and routinely cultured in RPMI 1640 supplemented with 10% FBS. In order to investigate the toxicity of the compounds on normal cells, in vitro experiments were also performed on HDF cells. These cells were kindly provided by Academic Center for Education, Culture and Research (ACECR, Mashhad, Iran) and grown in DMEM supplemented with 10% FBS. Both cell lines were kept at 37 °C containing 5% CO2 in a humidified incubator.
(§3) The MTT reduction assay is a standard quantitative method to evaluate cytotoxicity. This assay measures cellular dehydrogenases, and is considered as an easy, safe and highly reproducible method. Viable cells reduce yellow tetrazolium salt to purple formazan crystals and thus the color change serves as a marker reflecting cell viability.
(§4) PC-3 and HDF cells were seeded in 96-well plates (NEST, China) at a density of 6000 and 8000 cells per well, respectively and incubated at 37 °C with 5% CO2. […] After 24, 48 and 72 h of treatments, 20 μl MTT solution (5 mg ml^−1 in PBS; phosphate buffered saline) was added to each well, and cells were incubated in the dark for 3–4 h. The media were then removed and purple crystals were dissolved in 160 μl DMSO. The absorbance in each well was measured at 540 nm as reference wavelength in an enzyme-linked immunosorbent assay (ELISA) reader (Awareness Technology, USA) and relative optical density (OD) values were recorded. The percentage of viable cells was calculated using the following equation [49]: Cell viability%=100×ODmeanof treated cells-ODmeanblank/ODmeanof negative control cellsHCl0.3 N-ODmeanblank.

PC-3 cells [4] = assay: MTT cytotoxicity assay on PC-3 cells; format: cell-based, human; conditions: PC-3, MTT
Protocol: as §1, §2, §3, §4

15-lipoxygenase = target: 15-lipoxygenase; set-up: method as in PMID 17210254; conditions: read-out: IC50, 15-lipoxygenase inhibition; cited from earlier work
soybean LOX-1 [5] = target: T1, soybean LOX-1; set-up: method as in doi:10.1007/s00044-013-0506-7; conditions: read-out: IC50 against soybean LOX-1; cited from earlier work
15-LOX-1 = conditions: read-out: IC50 against 15-LOX-1; cited from earlier work
[6] = 10 and 50 mg kg^-1, 15 days follow up
[7] = high dose 50 mg kg^-1, 15 days, vs PBS and 0.3 N HCl controls
[8] = 24 h, read-out: IC50 (µM) ± SD (HDF) 24 h
[9] = 48 h, read-out: IC50 (µM) ± SD (HDF) 48 h
[10] = 72 h, read-out: IC50 (µM) ± SD (HDF) 72 h
[11] = 24 h, read-out: IC50 (µM) ± SD (PC-3) 24 h
[12] = 48 h, read-out: IC50 (µM) ± SD (PC-3) 48 h
[13] = 72 h, read-out: IC50 (µM) ± SD (PC-3) 72 h

Structure (SMILES): CCc1nc(N2CCN(C)CC2)nc2c1Nc1ccccc1S2 [4-EMPB, 4-Ethyl-2-(4-methylpiperazinyl)pyrimido[4,5-b]benzothiazine]
- serum AST and ALT levels [1]: significantly elevated
- body weight [1, 6]: no significant changes
- histological analysis of major organs (liver, kidney, spleen) [1]: no obvious tissue damages
- IC50 (soybean LOX-1 [2]): 14.3 µM
- tumor growth (PC-3 tumors; [7]): effectively inhibited
- change of Q2 (Annexin V positive/PI positive) population after co-treatment with deferoxamine (PC-3 cells [3]): markedly decreased
- percentage of early and late apoptotic/ferroptotic cells (Q3+Q2) (PC-3 cells [3]): 60.9%
- cytotoxicity on normal (HDF) cells, in words (HDF cells): weak cytotoxicity
- IC50 (HDF cells; Homo sapiens, 24 h, read-out: IC50 (µM) ± SD (HDF) 24 h): 545.5 ± 1.99 µM
- IC50 (HDF cells; Homo sapiens, 48 h, read-out: IC50 (µM) ± SD (HDF) 48 h): 361.7 ± 2.29 µM
- IC50 (HDF cells; Homo sapiens, 72 h, read-out: IC50 (µM) ± SD (HDF) 72 h): 258.9 ± 1.86 µM
- IC50 (PC-3 cells [4]; Homo sapiens, 24 h, read-out: IC50 (µM) ± SD (PC-3) 24 h): 107 ± 6.17 µM
- IC50 (PC-3 cells [4]; Homo sapiens, 48 h, read-out: IC50 (µM) ± SD (PC-3) 48 h): 75 ± 3.39 µM
- IC50 (PC-3 cells [4]; Homo sapiens, 72 h, read-out: IC50 (µM) ± SD (PC-3) 72 h): 49 ± 6.76 µM

Structure (SMILES): Cc1nc(N2CCN(C)CC2)nc2c1Sc1ccccc1N2 [4-MMPB, 4-Methyl-2-(4-methylpiperazinyl)pyrimido[4,5-b]benzothiazine]
- serum AST and ALT levels [1]: significantly elevated
- body weight [1, 6]: no significant changes
- histological analysis of major organs (liver, kidney, spleen) [1]: no obvious tissue damages
- IC50 (15-lipoxygenase): 18 µM
- IC50 (soybean LOX-1 [2]): 17.1 µM
- tumor growth (PC-3 tumors; [7]): effectively inhibited
- change of Q2 (Annexin V positive/PI positive) population after co-treatment with deferoxamine (PC-3 cells [3]): markedly decreased
- percentage of early and late apoptotic/ferroptotic cells (Q3+Q2) (PC-3 cells [3]): 41.5%
- cytotoxicity on normal (HDF) cells, in words (HDF cells): weak cytotoxicity
- IC50 (HDF cells; [8]): 331 ± 3.33 µM
- IC50 (HDF cells; [9]): 284 ± 2.98 µM
- IC50 (HDF cells; [10]): 186 ± 2.81 µM
- IC50 (PC-3 cells [4]; [11]): 101 ± 2.41 µM
- IC50 (PC-3 cells [4]; [12]): 55.6 ± 1.98 µM
- IC50 (PC-3 cells [4]; [13]): 40.8 ± 1.79 µM

Structure (SMILES): CCCc1nc(N2CCN(C)CC2)nc2c1Sc1ccccc1N2 [4-PMPB, 4-propyl-2-(4-methylpiperazinyl)pyrimido[4,5-b]benzothiazine]
- serum AST and ALT levels [1]: significantly elevated
- body weight [1, 6]: no significant changes
- histological analysis of major organs (liver, kidney, spleen) [1]: no obvious tissue damages
- IC50 (soybean LOX-1 [2]): 8.6 µM
- tumor growth (PC-3 tumors; [7]): effectively inhibited
- IC50 (soybean LOX-1 [5]): 9 µM
- change of Q2 (Annexin V positive/PI positive) population after co-treatment with deferoxamine (PC-3 cells [3]): markedly decreased
- percentage of early and late apoptotic/ferroptotic cells (Q3+Q2) (PC-3 cells [3]): 52.38%
- cytotoxicity on normal (HDF) cells, in words (HDF cells): no obvious cytotoxicity
- IC50 (HDF cells; [8]): 1641.1 ± 0.075 µM
- IC50 (HDF cells; [9]): 1443.7 ± 0.055 µM
- IC50 (HDF cells; [10]): 1028.9 ± 0.139 µM
- IC50 (PC-3 cells [4]; [11]): 122 ± 2.62 µM
- IC50 (PC-3 cells [4]; [12]): 88.5 ± 2.31 µM
- IC50 (PC-3 cells [4]; [13]): 57.6 ± 2.12 µM

Structure (SMILES): CC(C)=CCCC(C)=CCCC(C)=CCOc1cccc2oc(=O)ccc12 [5-farnesyloxycoumarin]
- IC50 (15-LOX-1): 8.32 µM

Structure (SMILES): N.N.[Cl][Pt][Cl] [Cisplatin, cisplatin, reference compound]
- histological analysis of major organs (liver, kidney, spleen) [1]: mild and local accumulation of inflammatory cells
- serum liver enzymes ([1]; cisplatin 2 mg kg^-1, compared to control group, p < 0.0001): significantly increased
- body weight ([1]; cisplatin 2 mg kg^-1, day 15, p < 0.01 vs other experimental groups): lowest body weights
- tumor growth (PC-3 tumors; cisplatin 2 mg kg^-1, 15 days, vs controls and lower-dose groups): significant decrease
- percentage of early and late apoptotic/ferroptotic cells (Q3+Q2) (PC-3 cells [3]): 67.8%
- IC50 (HDF cells; [8]): 153 ± 2.89 µM
- IC50 (HDF cells; [9]): 119 ± 2.56 µM
- IC50 (HDF cells; [10]): 71.1 ± 3.34 µM
- IC50 (PC-3 cells [4]; [11]): 62.3 ± 1.74 µM
- IC50 (PC-3 cells [4]; [12]): 51.5 ± 1.43 µM
- IC50 (PC-3 cells [4]; [13]): 41.6 ± 1.11 µM
